# Data as given in patent publication US20050019847A1, “ISG15-conjugated proteins” (priority 2003, published 2005).
# Peptide text beside a SMILES is read from it. * marks the point of attachment. Cbz = O=C(OCc1ccccc1)*
# Key:
# ISG15-conjugates = test: Western blot of ISG15-conjugates in MEFs treated with proteasome inhibitor; format: cell-based, murine
# Description: (§1) (A) UBP43^+/+ and UBP43^−/− MEFs were incubated with or without IFNβ for 18 hours and were treated with lactacystin at a final concentration of 5 μM for 3 hours. An equal volume of DMSO (vehicle) was added to control samples. Cell lysates (10 μg total protein) were resolved on 8-18% minigel and western blot was performed with rabbit anti-mouse ISG15. The membrane was stripped and reprobed with anti-Ub serum. (B) UBP43^+/+ (not treated with IFN) and UBP43^−/− (incubated with IFNβ for 18 hours) MEFs were treated with MG132 at a final concentration of 10 μM for 3 hours. An equal volume of DMSO (vehicle) was added to control samples. PLCγ1 was immunoprecipitated and immunocomplexes were resolved on 7% minigel. The membrane was probed with anti-ISG15 and, after stripping, was reprobed with anti-PLCγ1. Positions of unmodified PLCγ1 are shown with arrows and positions of conjugates are shown with asterisks. Cell lysates (10 μg total protein) were also resolved on an identical minigel to assess amount of ISG15- and Ub-conjugates. Western blot was performed with rabbit anti-mouse ISG15 and after stripping the membrane was reprobed with anti-Ub serum.
# (§2) Wild type and UBP43^−/− murine embryonic fibroblasts (MEFs) were generated from a litter of embryos on embryonic day 12.5. Briefly, embryonic torsos were minced and trypsinized for 30 min at 37° C. […]
# ubiquitinated proteins = test: Western blot of ubiquitinated proteins in MEFs treated with proteasome inhibitor; format: cell-based, murine; conditions: UBP43−/− and UBP43+/+ MEFs, uninduced or IFNβ induced; lactacystin 5 μM for 3 hours
# Description: as §1, §2
Structure (SMILES),"level of ISG15-conjugation (ISG15-conjugates; UBP43+/+ (no IFN) and UBP43−/− (IFNβ 18 hours) MEFs, MG132 10 μM for 3 hours)","amount of ISG15-conjugates, treated vs untreated samples (ISG15-conjugates; UBP43−/− and UBP43+/+ MEFs, uninduced or IFNβ induced, lactacystin 5 μM for 3 hours)",amount of ubiquitinated proteins (ubiquitinated proteins)
CC(C)C[C@@H](C=O)NC(=O)[C@H](CC(C)C)NC(=O)[C@H](CC(C)C)NC(=O)OCc1ccccc1 [MG132] (Cbz-Leu-Leu-Leu-aldehyde),do not affect,–,–
CC(=O)N[C@@H](CSC(=O)[C@]1([C@@H](O)C(C)C)NC(=O)[C@H](C)[C@@H]1O)C(=O)O [lactacystin],–,no difference,increase
